According to publication doi:10.1101/2020.05.06.079947v2 (biorxiv, 2020):

Molecular target: PDEδ (Homo sapiens, UniProt O43924)
Experiment: SPR
Format: binding

PDEδ, sequence (O43924 whole entry): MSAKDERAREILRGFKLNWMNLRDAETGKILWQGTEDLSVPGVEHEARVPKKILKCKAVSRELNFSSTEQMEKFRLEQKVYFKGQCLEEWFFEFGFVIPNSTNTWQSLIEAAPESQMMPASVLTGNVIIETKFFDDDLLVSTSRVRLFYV

- Kd: 2260 nM
SMILES: O=C(COc1cccc2c1C(=O)N(C1CCC(=O)NC1=O)C2=O)NCCCOCCOCCOCCCNC(=O)c1cc(Oc2ccc(NC(=O)Nc3ccc(Cl)c(C(F)(F)F)c3)cc2)ccn1 (stereo not shown) [PROTAC T-S, 4-(4-(3-(4-chloro-3-(trifluoromethyl)phenyl)ureido)phenoxy)-N-(1-((2-(2,6-dioxopiperidin-3-yl)-1,3-dioxoisoindolin-4-l)oxy)-2-oxo-7,10,13-trioxa-3-azahexadecan-16-yl)picolinamide]
